# Laboratory results reported in patent US20070224635A1, “Regulated Stop Codon Readthrough” (Maxygen Holdings, Ltd., priority 2004, published 2007).
# Key:
# [1] = system: premature UAG mutation; conditions: cultured mammalian cells; cited from earlier work
# [2] = system: UGA stop codon (UGAC tetranucleotide); assay: FACS analysis of membrane-anchored protein C after G-418-induced readthrough, PC-UGAC-GPI construct; format: cell-based, Chinese hamster (CHO-K1 cells); conditions: with G-418, background in absence of G-418 about 13%
# Experimental: (§1) As a control, the retroviral vector pLenti6-PC-GPI was used to transfect HEK293FT cells and produce retrovirus particles. After 48 hours, supernatants containing retroviral particles were harvested, filter-sterilized to remove cell debris, and subsequently used to infect CHO-K1 cells. CHO-K1 cells were selected for resistance to the Blasticidin antibiotic at the concentration of 5 mg/l for 10 days. The resulting pools of Blasticidin-resistant cells were transferred into 6 culture flasks for each cell pool and grown to 25% confluency. To induce translational readthrough, the antibiotic G-418 was added to the culture flasks at final concentrations ranging from 12.5 mg/l to 100 mg/l and flasks were incubated for another 48 hours at 37° C. […] Labeled retroviral cell lines were analyzed by FACS for membrane-anchored recombinant PC using a FACScalibur™ (Becton Dickinson) instrument with an excitation wave length of 488 nm and an emission filter of 585 nm.
# (§2) The results shown in FIG. 4 illustrate that both cell lines expressing the PC-UAAC-GPI and PC-UGAC-GPI reporters display PC at the cell surface in the presence of aminoglycoside. […] Furthermore, the amount of recombinant membrane-anchored PC is more abundant for the PC-UGAC-GPI construct than for the PC-UAAC-GPI construct, and this applies to all aminoglycoside concentrations that were assessed.
# [3] = system: UAA stop codon (UAAC tetranucleotide); assay: FACS analysis of membrane-anchored protein C after G-418-induced readthrough, PC-UAAC-GPI construct; format: cell-based, Chinese hamster (CHO-K1 cells); conditions: with G-418, background in absence of G-418 about 0.5%
# Experimental: as §1, §2
# [4] = system: UAA stop codon; assay: FACS detection of membrane-anchored FVII (FVII-UAA-GPI) in transfected CHO-K1 cells without antibiotic resistance gene; format: cell-based, Chinese hamster (CHO-K1 cells)
# Experimental: The resulting PCR product encompassed the CMV promoter, the b-globin intron, the FVII gene, the UAA stop codon, the GPI anchor signal and the b-globin poly-adenylation signal (FIG. 11). The PCR product was purified and subsequently used to transfect CHO-Kcells with Lipofectamine™ 2000 (Invitrogen) as described above. Additionally, a flask containing CHO-K1 cells was incubated with Lipofectamine™ 2000 but without DNA as a negative control. Five hours after transfection, G-418 was added to the two culture flasks at a final concentration of 100 mg/L to promote translational readthrough. […] Labeled retroviral cell lines were analyzed by FACS for membrane-anchored recombinant FVII using a FACSVantage™ (Becton Dickinson) instrument with an excitation wave length of 488 nm and an emission filter of 585 nm.
# Because expression of the recombinant FVII protein is correlated with expression of the FVII-GPI protein fusion arising from aminoglycoside-mediated translational readthrough, transgenic cells can be selected by means of FACS based on membrane-anchored FVII detection. […] Approximately 2500 cells from gate R3 of the transfected cells were sorted as a pool and grown for 9 days in the absence of antibiotic, after which translational readthrough was induced by treating the cells with G-418 at 100 mg/L for 2 days. […]
# [5] = system: nonsense mutation in CFTR; conditions: cell line carrying a nonsense mutation in CFTR; cited from earlier work
compound,measurement,setting,value
NC[C@@H]1O[C@H](O[C@H]2[C@@H](O)[C@H](O[C@@H]3[C@@H](O)[C@H](N)C[C@H](N)[C@H]3O[C@H]3O[C@H](CO)[C@@H](O)[C@H](O)[C@H]3N)O[C@@H]2CO)[C@H](N)[C@@H](O)[C@@H]1O [paromomycin],synthesis of full-size protein from mutant gene,[1],partially restore the synthesis of a full-size protein
CN[C@@H]1[C@@H](O)[C@@H](O[C@@H]2[C@@H](O)[C@H](O[C@H]3O[C@H]([C@@H](C)O)[C@@H](O)[C@H](O)[C@H]3N)[C@@H](N)C[C@H]2N)OC[C@]1(C)O [G-418],FACS-positive cells (up to),[2],about 25%
same,FACS-positive cells (up to),[3],about 10%
same,"cells positive for FVII display, second FACS round","[4]; G-418 100 mg/L for 2 days after 9 days growth, non-transfected control 1.1%, FIG. 13",3.4%
same,"transfected CHO-K1 cells exhibiting fluorescence signals (gate R3), first FACS round","[4]; G-418 100 mg/L, negative control 0.4%, FIG. 12",7.1%
gentamicin,expression of CFTR protein,[5],restore the expression
